From patent US11286233B2, “Stilbene derivatives for the treatment of CNS and other disorders” (AMBIENT PHOTONICS, INC., priority 2017, dated 2022) come the findings set out here.

The term EC50 denotes the midpoint of the concentration-response curve. Low values mean a more potent agent, high ones a less potent agent.

Assay [1] concerns the target T1, Amylin 8-37 (Homo sapiens, UniProt P10997).
T1 construct: Amylin 8-37 peptide was solubilized in DMSO; purchased China Peptide
T1 sequence (P10997 41-70): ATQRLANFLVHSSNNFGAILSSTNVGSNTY
As to the kind of experiment: Fluorescence-based (bis-ANS) assay of Amylin disaggregation. It counts as biochemical. Particulars: Amylin 8-37 15 μM, bis-ANS 15 μM; Tris-HCl pH7.4, 26° C.; aggregation 24 hours, test compounds 0.227-60 μM, read over 24 hour period; concentration reducing fluorescence by 50 percent. How it is done: Human peptides Aβ1-42 and Amylin 8-37 were purchased from China Peptide and stored at −80° C. Zinc sulfate heptahydrate (ZnSO4.7H2O), BisANS (4,4′-Dianilino-1,1′-binaphthyl-5,5′-disulfonic acid dipotassium salt), Epigallocatechin-3-gallate (EGCG), 9-(Dicyanovinyl)julolidine (DCVJ) and Clioquinol (CQ) were purchased from Sigma Aldrich. Ethylenediaminetetraacetic acid (EDTA) was purchased from Alfa Aesar. 2-(dimethylamino)methyl-5,7-dichloro-8-hydroxyquinoline (AC-068), structurally similar to PBT-2 was synthesized by Warner Babcock Institute for Green Chemistry, LLC.
Amylin disaggregation was assessed using a Spectramax M5 multi-mode microplate reader (Molecular Devices) using untreated black with clear bottom 96 well plates (Costar #3631). The device was configured to maintain 26° C., measure an excitation of 390 nm, emission of 490 nm and cutoff 475 nm with the PMT+set at Medium, 6 flashes/read at 5-minute intervals with shaking 5 seconds before the first read and 3 seconds between reads.
Experiments were conducted at 26° C. in a Tris-HCl buffer (50 mM, pH7.4) containing NaCl (150 mM). Amylin 8-37 peptide was solubilized in DMSO to a concentration of 1.5 mM for 5 minutes then briefly centrifuged to remove any aggregates. The soluble amylin peptide (15 μM) was immediately mixed ±bis-ANS (15 μM) and the plate sealed to prevent evaporation. Aggregation was measured by an increase in fluorescence over 24 hours. Test compounds (0.227-60 μM in DMSO) were then added and the dose response was measured over a 24 hour period. EGCG was used as a positive control. Raw fluorescence was normalized to background fluorescence without Amylin and expressed as a percentage of that in control samples. All quantitative data was expressed as mean±SEM from at least 3 replicates. All statistical analysis was conducted with Prism 6 (GraphPad). Nonlinear regression was used to calculate the concentration at which fluorescence was reduced by 50 percent (EC50), as shown in Table 2.

The target in assay [2] is T2, Aβ1-42:Zn (Homo sapiens, UniProt P05067).
T2 construct: Human peptides Aβ1-42 and Amylin 8-37 were purchased; purchased China Peptide
T2 sequence (P05067 672-713): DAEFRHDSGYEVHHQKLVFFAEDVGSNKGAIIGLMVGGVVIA
As to the kind of experiment: Fluorescence-based (bis-ANS) assay of Aβ1-42:Zn disaggregation. The following applies: Aβ1-42 15 μM, bis-ANS 15 μM, Zn 15 μM; Tris-HCl pH7.4, 26° C.; test compounds 0.227-60 μM added after plateau, read over 20 minutes; concentration reducing fluorescence by 50 percent. It counts as biochemical. The protocol:
Human peptides Aβ1-42 and Amylin 8-37 were purchased from China Peptide and stored at −80° C. […] The device was configured to maintain 26° C., measure an excitation of 390 nm, emission of 490 nm and cutoff 475 nm with the PMT+set at Medium, 6 flashes/read at 40 second intervals with shaking 5 seconds before the first read and 3 seconds between reads. Experiments were conducted at 26° C. in a Tris-HCl buffer (50 mM, pH7.4) containing NaCl (150 mM). Aβ1-42 was solubilized in DMSO to a concentration of 1.5 mM for 5 minutes then briefly centrifuged to remove any aggregates. The soluble Aβ1-42 (15 μM) was immediately mixed ±bis-ANS (15 μM) and allowed to equilibrate for 5 minutes. Aβ aggregation was induced with the addition of ±Zn (15 μM) in H2O. […] Test compounds (0.227-60 μM in DMSO) were then added and the dose response was measured over a 20-minute period. EDTA, known to chelate Zn, was used as a positive control. Raw fluorescence was normalized to background fluorescence without Aβ and expressed as a percentage of that in control samples without Zn. All quantitative data was expressed as mean±SEM from at least 3 replicates. All statistical analysis was conducted with Prism 6 (GraphPad).

With `COc1cc(/C=C(\C#N)C(=O)O)c(OC)cc1/C=C/c1ccc(-n2c3ccc(C(C)(C)C)cc3c3cc(C(C)(C)C)ccc32)cc1` [PC-066, (E)-2-cyano-3-[4-[(E)-2-[4-(3,6-ditert-butylcarbazol-9-yl)phenyl]vinyl]-2,5-dimethoxy-phenyl]prop-2-enoic Acid], a half-maximal response in assay [1] (EC50) required 1.19 µM.

For the compound `N#C/C(=C/c1ccc(-c2ccc(N(c3ccccc3)c3ccccc3)cc2)o1)C(=O)O` [PC-081, (Z)-2-cyano-3-[5-[4-(N-phenylanilino)phenyl]-2-furyl]prop-2-enoic Acid], the EC50 was 0.338 µM in assay [2] and 0.207 µM in assay [1].

Take `COc1cc(/C=C/c2ccc(N(c3ccc(C(C)(C)C)cc3)c3ccc(C(C)(C)C)cc3)cc2)c(OC)cc1C=C(C#N)C(=O)O` (stereo in doubt) [PC-063, (Z)-3-[4-[(E)-2-[4-(4-tert-butyl-N-(4-tert-butylphenyl)anilino)phenyl]vinyl]-2,5-dimethoxy-phenyl]-2-cyano-prop-2-enoic Acid]: the EC50 in assay [2] was determined as 31 µM; in assay [1], 1.26 µM.

`N#CC(=Cc1ccc(/C=C/c2ccc(N(c3ccccc3)c3ccccc3)cc2)cc1)C(=O)O` (stereo in doubt) [PC-064, (Z)-2-cyano-3-[4-[(E)-2-[4-(N-phenylanilino)phenyl]vinyl]phenyl]prop-2-enoic Acid]: the EC50 in assay [2] is 0.747 µM; in assay [1] it was 0.024 µM.

`N#C/C(=C/c1ccc(/C=C/c2ccc(N(c3ccccc3)c3ccccc3)cc2)cc1OCCCCCCCC(=O)O)C(=O)O` [PC-191] showed an EC50 in assay [2] of 1.61 µM.

For `N#C/C(=C/c1ccc(/C=C/c2ccc(N(c3ccccc3)c3ccccc3)cc2)cc1OCCCCCCCCCC(=O)O)C(=O)O` [PC-192], a half-maximal response in assay [2] (EC50) required 2.85 µM.

`CN(C)Cc1ccc2c(Cl)cc(Cl)c(O)c2n1` [AC-068(PBT2), 2-(dimethylamino)methyl-5,7-dichloro-8-hydroxyquinoline, reference compound]: the EC50 in assay [2] was 2.21 µM.

`CC(C)(C)c1ccc(N(c2ccc(/C=C/c3ccc4cc(C#N)c(=O)[nH]c4c3)cc2)c2ccc(C(C)(C)C)cc2)cc1` [PC-174, 7-[(E)-2-[4-(4-tert-butyl-N-(4-tert-butylphenyl)anilino)phenyl]vinyl]-2-oxo-1H-quinoline-3-carbonitrile]: the EC50 is 49.7 µM in assay [2] and 3.74 µM in assay [1].

Regarding `O=C(O)CN(CCN(CC(=O)O)CC(=O)O)CC(=O)O` [EDTA, Ethylenediaminetetraacetic acid, reference compound], it took 46.1 µM to reach a half-maximal effect in assay [2] (EC50). In other words, the double-digit micromolar range.

Turning to `Oc1c(I)cc(Cl)c2cccnc12` [CQ, Clioquinol, reference compound], the figures for the EC50 in assay [2] and in assay [1] were 2.69 µM and 4.07 µM, respectively.

In assay [1], “Epigallocatechin-3-gallate [EGCG, reference compound]” returned a concentration for a half-maximal effect (EC50) of 0.857 µM.

On to `N#CC(C#N)=Cc1cc2c3c(c1)CCCN3CCC2` [DCVJ, 9-(Dicyanovinyl)julolidine, reference compound], for which it took 0.533 µM to reach a half-maximal effect in assay [2] (EC50).

In assay [2], `N#C/C(=C/c1ccc(/C=C/c2ccc(N(c3ccccc3)c3ccccc3)cc2)cc1OCC(=O)O)C(=O)O` [PC-190, (Z)-3-[2-(carboxymethoxy)-4-[(E)-2-[4-(N-phenylanilino)phenyl]vinyl]phenyl]-2-cyano-prop-2-enoic Acid] gave an EC50 of 0.649 µM. The EC50 values of the last two compounds are within 1.5-fold of each other.
